Data set [1] concerns MINO, Z-138, MAVER, OCI-Ly18, SU-DHL-4, NALM6, MOLM-14. Briefly: CART plus venetoclax or AZD5991 tumor killing, 48 hours. In kind it is cell-based. As to conditions: AZD5991 125 nM, with CART19 (CART33 for MOLM-14). The procedure:
To investigate whether inhibition of MCL-1, another key anti-apoptotic regulator, lead to enhancement of tumor killing, various B-cell malignant (luciferase+) cell lines were co-cultured with either vehicle (DMSO), venetoclax or AZD5991 in the presence of CART19 for 48 hours and change of luminescence intensity was measured to quantify the tumor killing. To test the combination effect of CART/drug in different tumor types, AML cell lines (luciferase positive MOLM-14) were co-cultured with CART33 in the presence of either venetoclax or AZD5991. Tumor killing (%) was calculated using the formula: (sample−maximal tumor growth)/(lysis control−maximal tumor growth)×100. MINO (Venetoclax: 1 nM, AZD5991: 125 nM), Z-138 (Venetoclax: 25 nM, AZD5991: 125 nM), MAVER (Venetoclax: 25 nM, AZD5991: 125 nM), OCI-Ly18 (Venetoclax: 10 nM, AZD5991: 125 nM), SU-DHL-4 (Venetoclax: 500 nM, AZD5991: 125 nM), NALM6 (Venetoclax: 500 nM, AZD5991: 125 nM), MOLM-14 (Venetoclax: 125 nM, AZD5991: 125 nM). […] CART19: anti-CD19 CAR T cell.
CART19 cells were co-cultured with either vehicle (DMSO) or venetoclax and cytotoxicity was measured at 48 hours. […] This effect was further confirmed using primary NHL cells (MCL) (FIG. 1D). […]

The subject of another data set is CART19. Briefly: AZD5991 CART cell toxicity, co-culture with irradiated NALM6 for 120 hours. The format is cell-based, human. The settings on record: 110-10000 nM, E:T 0.25:1. The procedure:
To quantify CART cell toxicity, CART19 was co-cultured with irradiated NALM6 in the presence of either vehicle (DMSO), venetoclax or AZD5991 for 120 hours. After co-culture, samples were stained with anti-CD3 antibody and anti-CAR19 idiotype antibody to distinguish between effector (T cells) and target cells (NALM6). Survival of CART cell were then measured by using flow cytometry. E:T ratio=0.25:1. Concentrations of venetoclax and AZD5991: 110 nM, 330 nM, 1100 nM, 3300 nM and 10000 nM. […] All data represent mean±SD. **P<0.005, *P<0.05. ns: not significant.
To investigate this hypothesis, the expansion and persistence of CART19 cells in the peripheral blood of NSG mice treated with CART19 plus venetoclax or CART19 alone was analyzed using flow cytometry. […] To test whether prolonged exposure to venetoclax leads to CART cell toxicity, an in vitro venetoclax toxicity assay was performed using CART cells manufactured from 8 different T cell donors. […] Of note, the level of toxicity to CART cells varied among the different T cell donors, likely due to different apoptotic priming statuses at baseline. […] In order to discern whether the reduced survival was due to increased apoptosis or reduction of proliferation, the caspase 3/7 activity in CART19 was assessed in the presence or absence of venetoclax. […]

Another data set has as its system NALM6. Briefly: Targeted pro-apoptotic small molecule screening with CART19 against NALM6, killing by luminescence at 48 hours. The settings on record: drug 100 and 1000 nM with CART19.
The next data set deals with CART19-BCL-2(WT). Briefly: Cytotoxicity of doxorubicin on CART cells, 24 hours. In kind it is cell-based, human. The settings on record: doxorubicin 300 and 1000 nM. The source says: FIGS. 26A-26H illustrate the finding that increased BCL-2 expression in T cells from CART apheretic products is associated with positive clinical outcomes in lymphoma patients at long term. FIG. 26A is a schematic description of the approach taken to investigate the relationship between the level of BCL-2 and CART's clinical response. RNA was extracted from T cells from apheretic products of 38 lymphoma patients who received CART19 immunotherapy (CTL019, i.e., tisagenleucleucel) in the clinical trial (NCT02030834). Next, BCL-2 mRNA expression was quantified via the nCounter analysis system (NanoString Technologies, Inc, Seattle, WA). FIG. 26B is a volcano plot showing differential gene expression in T cells based on best overall response (CR or NR). […] EGFR: Epidermal growth factor receptor.
Nevertheless, to further investigate the safety profile of this approach, whether CART19-BCL-2(WT) cells are still sensitive to conventional cytotoxic drugs such as chemotherapy (e.g., doxorubicin) was assessed. […] Furthermore, to enhance the safety profile of CART19-BCL-2(WT) cells, a CART suicide system (Paszkiewicz, et al., The Journal of clinical investigation 2016; 126(11):4262-72) was employed by expressing truncated EGFR into CART19-BCL-2(WT).

The next data set deals with tumor cells. As to conditions: Karlsson et al. 2013; Yang et al. 2020; cited from earlier work.

On to `Cc1c2c(nn1C)CSCc1cc(n(C)n1)CSc1cc(c3ccccc3c1)OCCCc1c(C(=O)O)n(C)c3c-2c(Cl)ccc13` [AZD5991], for which the “Enhancement of tumor killing in presence of CART” value in data set [1] is reported as “venetoclax, but not AZD5991 (MCL-1 inhibitor), leads to enhancement of tumor killing”. For the same molecule, the “CART cell toxicity (CART survival)” value in the data set on CART19 was “induces severe CART cell toxicity”.

For the molecule `CC[C@H](NC(=O)[C@H](C)NC)C(=O)N1C[C@@H](O)C[C@H]1Cc1c(-c2[nH]c3cc(F)ccc3c2C[C@@H]2C[C@H](O)CN2C(=O)[C@H](CC)NC(=O)[C@H](C)NC)[nH]c2cc(F)ccc12` [birinapant], the “Enhancement of CART19 killing / CART cell cytotoxicity” value in the data set with NALM6 is listed as “increased CART cell cytotoxicity”.

In the case of `COc1cccc2c1C(=O)c1c(O)c3c(c(O)c1C2=O)C[C@@](O)(C(=O)CO)C[C@@H]3O[C@H]1C[C@H](N)[C@H](O)[C@H](C)O1` [doxorubicin], the “Elimination of BCL-2-expressing CART cells” value in the data set with CART19-BCL-2(WT) was “fast and effective elimination of CART19-BCL-2(WT)”.

`CN(C)CC[C@H](CSc1ccccc1)Nc1ccc(S(=O)(=O)NC(=O)c2ccc(N3CCN(Cc4ccccc4-c4ccc(Cl)cc4)CC3)cc2)cc1[N+](=O)[O-]` [ABT737]: the “CART-mediated tumor killing (literature)” value in the data set with tumor cells was “significant increase of CART-mediated tumor killing”.

Values taken from patent US20240335539A1, “MODULATION OF BCL-2 TO ENHANCE CHIMERIC ANTIGEN RECEPTOR CANCER IMMUNOTHERAPY EFFICACY” (The Trustees of the University of Pennsylvania, priority 2021, published 2024).
